From US20150147276A1, “NANOTHERAPEUTICS FOR DRUG TARGETING” (PRESIDENT AND FELLOWS OF HARVARD COLLEGE, priority 2012, published 2015)
Entries after “also recorded” stand apart in the source; their conditions may differ.

Experiments:
[1] = system: fibrin clots in pulmonary arteries; test: Ex vivo mouse pulmonary embolism model (lung ventilation-perfusion)
Experimental: (§1) Fibrin clots were formed by adding CaCl2 (20 mM) and human α-thrombin (1 units/ml final concentrations, Enzyme Research Laboratories, IN) to human fibrinogen (5 mg/ml, Enzyme Research Laboratories, IN), as previously described (23, 31). This solution was immediately added drop-wise to a solution of canola oil with Span-80 (0.05%). The emulsion was mixed at 350 rpm for 4 hr and centrifuged (500 g, 5 min), followed by repeated washing in ethanol and water. The diameter of the resulting fibrin beads was determined by optical microscopy to be ˜250 μm. By adjusting the mixing speed in the described protocol, fibrin beads of smaller defined sizes were produced.
6-8 week-old C57BL/6 male mice (Jackson Laboratory, Bar Harbor, Me.) were weighed and anesthetized with Avertin (200 mg/kg IP). The trachea was incised via surgical tracheotomy, and cannulated with a blunted 22G stainless steel needle tip. The lungs were subsequently ventilated at a rate of 60 breaths/min, with a Peak Inspiratory Pressure (Pip) of 10 cm H2O and a Positive End Expiratory Pressure (Peep) of 3 cmH2O with compressed air using a mouse ventilator (VCM-R, Hugo Sachs Elektroniks, Germany). Ex vivo ventilation and perfusion of the mouse lung was performed using an IL1 ex vivo mouse lung ventilation-perfusion system (Harvard Apparatus, Natick, Mass.), (32). Following initiation of mechanical ventilation, the chest was opened via thoracotomy, and heparin (100 IU) was injected into the right ventricle. […] A suture was placed around the pulmonary artery and aorta. Cannulae made from polyethylene tubing (PE90 (0.86 mm ID, 1.7 mm OD)) were placed in the pulmonary artery (PA) and left atrium (LA), and lungs were perfused with RPMI-1640 with 4% Bovine Albumin (PROBUMIN™ Reagent Grade, Billerica, Mass.) and 0.7 g NaCl/500 ml via a roller pump (ISM 834C, Ismatec SA, Switzerland) set at a constant flow rate of 0.5 ml/min in a recirculating system with a system volume of 6 ml. Perfusate and lung temperatures were maintained at 37° C. by housing the entire ex-vivo ventilation perfusion system inside a standard cell incubator without CO2 (Forma Scientific, Ohio). Humidity was maintained in the range […]. Pulmonary arterial and left atrial pressures and airway flow and pressures were recorded with dedicated Type 379 vascular pressure and DLP2.5 flow and MPX Type 399/2airway pressure transducers and TAM-A amplifiers (Hugo Sachs Elektroniks, Germany). Vascular pressures were zeroed at the mid lung level prior to each experiment and recorded using Polyview16© software (Grass Technologies, West Warwick, R.I.). Prior to injection of experimental fibrin clots (prepared as above), the measured pressures were allowed to stabilize and remain stable for a period of more than 10 minutes. A solution of fibrin clots suspended in perfusion medium was infused at a flow rate of 0.1 ml/min and mixed with the regular perfusion line entering the pulmonary artery. The fibrin clot suspension was infused until the pulmonary artery pressure increased to ˜three-fold higher than the baseline. The system was then allowed to equilibrate and remain stable for at least 10 minutes. Next, tPA-coated SA-NTs or free soluble tPA was added to the main perfusion line and circulated through the perfusion system. As in the microfluidic device experiments, when tPA was perfused, plasminogen was added to obtain a final concentration of 2.2 μM. Pulmonary artery and vein pressures were acquired continuously during the perfusion period. […]

[2] = system: thrombus in FeCl3-injured mesenteric arteries; test: Mouse ferric chloride arterial injury (thrombosis) model; format: in vivo; conditions: bolus, same tPA dose (50 ng)
Experimental: A previously described model was used with minor modifications (16). In brief, male C57BL/6 mice (3-4 weeks old) were anesthetized with 2.5% tribromoethanol (0.15 ml/10 g) and injected with fluorescently labeled platelets (calceinRed/Orange, ˜1×10^9 platelets/kg). An incision was made through the abdominal wall to expose the mesentery and arterioles (˜100 μm in diameter) were visualized using a Zeiss Axiovert 135-inverted microscope (objectives: 10× and 32×, Carl Zeiss Microlmaging, Inc.) and recorded on videotape. Whatman filter paper saturated with FeCl3 (10%) solution was applied topically for 5 min, which caused denudation of the endothelium. […] Following this bolus injection, the vessels were monitored until full occlusion occurred (blood flow stopped) and lasted for more than 10 seconds. The shear rate was calculated using an optical Doppler velocity meter (Microcirculation Research Institute, Texas A&M College of Medicine, College Station, Tex.) (17). […]

fibrin clots = target: T1, fibrin clots (Homo sapiens, UniProt P02671+P02675+P02679); test: Microfluidic model of vascular embolism (fibrin clot lysis); format: biochemical; conditions: 50 ng/ml tPA, same flow conditions
T1 construct: purchased Enzyme Research Laboratories, IN (fibrinogen, α-thrombin); Cell Sciences, MA (plasminogen)
T1 sequence (P02671 36-629 limits assumed): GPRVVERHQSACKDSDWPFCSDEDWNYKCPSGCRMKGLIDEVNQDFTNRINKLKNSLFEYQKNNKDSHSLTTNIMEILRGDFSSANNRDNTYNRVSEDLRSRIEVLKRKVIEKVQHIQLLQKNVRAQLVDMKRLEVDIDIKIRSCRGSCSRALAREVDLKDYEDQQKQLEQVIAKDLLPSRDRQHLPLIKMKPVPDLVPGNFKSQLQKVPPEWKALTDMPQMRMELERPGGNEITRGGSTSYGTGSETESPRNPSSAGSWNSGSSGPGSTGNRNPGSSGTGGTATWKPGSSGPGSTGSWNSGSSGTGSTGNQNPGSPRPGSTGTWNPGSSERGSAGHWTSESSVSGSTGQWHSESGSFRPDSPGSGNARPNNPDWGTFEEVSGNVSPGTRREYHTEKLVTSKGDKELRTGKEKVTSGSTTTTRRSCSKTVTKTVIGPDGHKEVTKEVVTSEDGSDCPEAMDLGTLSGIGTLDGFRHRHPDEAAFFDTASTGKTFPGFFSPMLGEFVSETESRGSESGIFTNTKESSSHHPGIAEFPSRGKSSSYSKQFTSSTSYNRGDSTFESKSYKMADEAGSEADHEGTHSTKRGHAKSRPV
T1 sequence (P02675 45-491 limits assumed): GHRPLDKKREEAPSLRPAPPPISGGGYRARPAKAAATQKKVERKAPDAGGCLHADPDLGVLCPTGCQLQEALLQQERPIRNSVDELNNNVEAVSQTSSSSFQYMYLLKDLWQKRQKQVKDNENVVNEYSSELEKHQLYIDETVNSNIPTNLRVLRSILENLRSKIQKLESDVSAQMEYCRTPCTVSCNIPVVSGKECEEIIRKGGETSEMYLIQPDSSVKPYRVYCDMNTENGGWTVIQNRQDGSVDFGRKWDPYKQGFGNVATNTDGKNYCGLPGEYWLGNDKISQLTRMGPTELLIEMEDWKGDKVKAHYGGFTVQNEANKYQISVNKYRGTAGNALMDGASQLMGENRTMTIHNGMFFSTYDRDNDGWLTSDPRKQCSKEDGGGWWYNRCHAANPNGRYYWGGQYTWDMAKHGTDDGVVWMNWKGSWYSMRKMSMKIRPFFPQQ
T1 sequence (P02679 27-437 isoform P02679-2 limits assumed): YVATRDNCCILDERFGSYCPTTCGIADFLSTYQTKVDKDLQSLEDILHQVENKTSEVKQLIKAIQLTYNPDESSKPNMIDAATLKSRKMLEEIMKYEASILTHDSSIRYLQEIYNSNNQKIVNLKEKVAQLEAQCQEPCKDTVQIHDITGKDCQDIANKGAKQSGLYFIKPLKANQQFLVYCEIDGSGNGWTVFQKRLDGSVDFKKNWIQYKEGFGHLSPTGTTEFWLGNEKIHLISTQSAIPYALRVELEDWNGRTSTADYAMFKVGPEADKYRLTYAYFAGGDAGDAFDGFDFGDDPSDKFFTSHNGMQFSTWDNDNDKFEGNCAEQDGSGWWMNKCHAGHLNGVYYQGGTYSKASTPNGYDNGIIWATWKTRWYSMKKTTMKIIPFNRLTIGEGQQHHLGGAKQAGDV
Excerpt: Microfluidic devices with a narrowed cross-sectional area (80 μm high×0.5 mm wide×200 mm long) were fabricated using soft lithography as described above. Fibrin clots formed as described below that were infused into the main channel lodged and obstructed the flow in these smaller channels. A solution of tPA or tPA coated SA-NTs was infused at a flow rate corresponding to a shear stress of 10 dyne/cm2 in an unobstructed channel. Prior to infusion of the tPA solutions, bovine plasminogen (Cell Sciences, MA) was added to a final concentration of 2.2 μM (30). During the fibrinolysis process, the fibrin clot sizes were monitored in real-time (images acquired every 30 sec) on an inverted Zeiss microscope.
as §1

tissue plasminogen activator [free tPA]
effect on pulmonary artery pressure ([1]; 50 ng/ml): did not reduce pulmonary artery pressure
effect on pulmonary artery pressure ([1]; 50 ng/ml, listed as soluble tPA): failed to produce any significant response
effect on pulmonary artery pressure ([1]; 500 ng/ml (ten times higher dose)): did not reduce pulmonary artery pressure
effect on pulmonary artery pressure ([1]; 500 ng/ml (ten times higher dose), listed as soluble tPA): failed to produce any significant response
effect on pulmonary artery pressure ([1]; 5,000 ng/ml (100-fold higher dose)): produced similar effects
delay of time to full vascular occlusion [2]: did not produce any significant delay; also recorded: neither addition of free tPA, pre-dissociated tPA-NPs, nor heat-fused tPA-NP microaggregates (that do not dissociate in high shear) produced any detectable effects
reduction in clot size (fibrin clots): < 5%
